Assay results reported in patent US20260317344A1, “EGFR INHIBITORS FOR TREATING DISEASE” (BLOSSOMHILL THERAPEUTICS, INC., priority 2023, published 2026).

Columns and labels:
Format in all cases: cell-based
[1] = test system: BaF3 cells with engineered EGFR L858R/C797S; assay: 3-Day CellTiter Glo (CTG) cell proliferation assay, BaF3 EGFR L858R/C797S; details: Mus musculus, 3-day CTG proliferation, 72 hours
Procedure: (§1) 3-DAY CellTiter Glo (CTG) Cell Proliferation Assays (BaF3 Cell Lines)
(§2) Cell proliferation assays were carried out in BaF3 cells engineered with EGFR mutations. BaF3 cells with engineered EGFR L858R/T790M/C797S, EGFR L858R/C797S, or EGFR d746-750/T790M transgene, one thousand cells/50 μL per well were seeded in white 384-well plate, followed by treatment with indicated compounds in a 9-dose dilution series using TECAN d300e liquid dispenser. Cells were incubated with compounds for 72 hours at 37° C. and 5% CO2. Cell proliferation was measured using CellTiter-Gbo 2.0 luciferase-based ATP detection assay (Promega, Madison, WI) at 18 μL per well following the manufacturer's protocol. Plates were then read on a TECAN Sparks multimode microplate reader. Data was analyzed using GraphPad Prism 9 (GraphiPad Software, San Diego, CA) to obtain IC50 values.

HCC827 cells = assay: 5-Day CellTiter Glo (CTG) cell proliferation assay, HCC827; details: Homo sapiens; HCC827 cells (d746-750 EGFR), 5-day CTG proliferation, 120 hours; read-out: HCC827 IC50
Method in brief: (§3)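 Luminescent ATP signal (CellTiter-Glo 2.0) after 120 hours of compound exposure gave IC50 values. PC-9 and HCC827 harbour EGFR d746-750; NCI-H1975 harbours L858R/T790M.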

[2] = test system: BaF3 cells with engineered EGFR L858R/T790M/C797S; assay: 3-Day CellTiter Glo (CTG) cell proliferation assay, BaF3 EGFR L858R/T790M/C797S; details: Mus musculus, 3-day CTG proliferation, 72 hours
Procedure: as §1, §2

PC-9 cells = assay: 5-Day CellTiter Glo (CTG) cell proliferation assay, PC-9; details: Homo sapiens; PC-9 cells (d746-750 EGFR), 5-day CTG proliferation, 120 hours; read-out: PC-9 IC50
Method in brief: as §3

[3] = target: T1, pEGFR, A431 cells (wildtype EGFR) (Homo sapiens, UniProt P00533); assay: Cellular EGFR phosphorylation assay (LANCE Ultra TR-FRET) in A431 cells; details: 4 hours at 37° C., 40 ng/mL EGF for the final 10 minutes, read-out: A431 pEGFR IC50
T1 construct: pEGFR (Tyr1068) TR-FRET
Method in brief: (§4)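 4 h compound treatment at 37 °C, 9-point 3-fold titration. EGF (40 ng/mL, final 10 min) in A431 only. Tyr1068 phosphorylation measured by TR-FRET and IC50 fitted.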

NCI-H1975 cells = assay: 5-Day CellTiter Glo (CTG) cell proliferation assay, NCI-H1975; details: Homo sapiens; NCI-H1975 cells (L858R/T790M EGFR), 5-day CTG proliferation, 120 hours; read-out: H1975 IC50
Method in brief: as §3

[4] = target: T2, pEGFR, PC-9 cells (d746-750 EGFR) (Homo sapiens, UniProt P00533, DEL746-750); assay: Cellular EGFR phosphorylation assay (LANCE Ultra TR-FRET) in PC-9 cells; details: 4 hours at 37° C., read-out: PC-9 pEGFR IC50
T2 construct: pEGFR (Tyr1068) TR-FRET
Method in brief: as §4

[5] = target: T3, pEGFR, NCI-H1975 cells (L858R/T790M EGFR) (Homo sapiens, UniProt P00533, L858R/T790M); assay: Cellular EGFR phosphorylation assay (LANCE Ultra TR-FRET) in NCI-H1975 cells; details: 4 hours at 37° C., read-out: H1975 pEGFR IC50
T3 construct: pEGFR (Tyr1068) TR-FRET
Method in brief: as §4

[6] = test system: BaF3 cells with engineered EGFR d746-750/T790M; assay: 3-Day CellTiter Glo (CTG) cell proliferation assay, BaF3 EGFR d746-750/T790M; details: Mus musculus; BaF3 EGFR d746-750/T790M cells, 3-day CTG proliferation, 72 hours
Procedure: as §1, §2

T1 sequence (P00533 25-1210): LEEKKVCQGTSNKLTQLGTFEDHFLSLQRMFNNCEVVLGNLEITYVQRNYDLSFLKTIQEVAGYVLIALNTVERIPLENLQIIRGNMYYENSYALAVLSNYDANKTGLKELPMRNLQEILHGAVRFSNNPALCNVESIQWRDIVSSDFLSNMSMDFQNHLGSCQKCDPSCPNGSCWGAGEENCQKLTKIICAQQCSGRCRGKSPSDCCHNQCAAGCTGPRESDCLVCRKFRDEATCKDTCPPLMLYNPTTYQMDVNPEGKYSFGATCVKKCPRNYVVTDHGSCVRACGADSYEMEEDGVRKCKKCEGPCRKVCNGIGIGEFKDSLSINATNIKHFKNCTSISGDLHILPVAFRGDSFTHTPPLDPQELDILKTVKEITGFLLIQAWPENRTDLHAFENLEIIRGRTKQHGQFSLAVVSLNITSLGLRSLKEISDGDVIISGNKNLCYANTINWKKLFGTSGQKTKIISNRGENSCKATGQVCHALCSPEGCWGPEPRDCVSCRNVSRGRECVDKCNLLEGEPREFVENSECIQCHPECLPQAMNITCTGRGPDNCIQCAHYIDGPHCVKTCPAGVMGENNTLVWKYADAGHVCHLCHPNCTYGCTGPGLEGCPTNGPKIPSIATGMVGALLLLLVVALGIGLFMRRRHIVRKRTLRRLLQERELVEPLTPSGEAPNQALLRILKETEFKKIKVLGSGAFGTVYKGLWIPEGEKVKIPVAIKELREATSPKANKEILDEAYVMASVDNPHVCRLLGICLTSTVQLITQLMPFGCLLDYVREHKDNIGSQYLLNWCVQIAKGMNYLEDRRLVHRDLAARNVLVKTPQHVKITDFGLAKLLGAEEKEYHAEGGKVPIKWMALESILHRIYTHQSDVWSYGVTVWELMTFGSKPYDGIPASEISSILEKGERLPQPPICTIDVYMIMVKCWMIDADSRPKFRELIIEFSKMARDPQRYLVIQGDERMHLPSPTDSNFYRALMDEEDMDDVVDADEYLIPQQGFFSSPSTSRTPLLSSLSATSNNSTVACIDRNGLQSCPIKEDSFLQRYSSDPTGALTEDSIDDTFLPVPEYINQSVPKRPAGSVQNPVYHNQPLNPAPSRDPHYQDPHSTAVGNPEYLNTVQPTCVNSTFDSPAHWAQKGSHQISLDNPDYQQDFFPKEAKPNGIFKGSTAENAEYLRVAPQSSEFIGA
T3 sequence (P00533 25-1210 T790M/L858R): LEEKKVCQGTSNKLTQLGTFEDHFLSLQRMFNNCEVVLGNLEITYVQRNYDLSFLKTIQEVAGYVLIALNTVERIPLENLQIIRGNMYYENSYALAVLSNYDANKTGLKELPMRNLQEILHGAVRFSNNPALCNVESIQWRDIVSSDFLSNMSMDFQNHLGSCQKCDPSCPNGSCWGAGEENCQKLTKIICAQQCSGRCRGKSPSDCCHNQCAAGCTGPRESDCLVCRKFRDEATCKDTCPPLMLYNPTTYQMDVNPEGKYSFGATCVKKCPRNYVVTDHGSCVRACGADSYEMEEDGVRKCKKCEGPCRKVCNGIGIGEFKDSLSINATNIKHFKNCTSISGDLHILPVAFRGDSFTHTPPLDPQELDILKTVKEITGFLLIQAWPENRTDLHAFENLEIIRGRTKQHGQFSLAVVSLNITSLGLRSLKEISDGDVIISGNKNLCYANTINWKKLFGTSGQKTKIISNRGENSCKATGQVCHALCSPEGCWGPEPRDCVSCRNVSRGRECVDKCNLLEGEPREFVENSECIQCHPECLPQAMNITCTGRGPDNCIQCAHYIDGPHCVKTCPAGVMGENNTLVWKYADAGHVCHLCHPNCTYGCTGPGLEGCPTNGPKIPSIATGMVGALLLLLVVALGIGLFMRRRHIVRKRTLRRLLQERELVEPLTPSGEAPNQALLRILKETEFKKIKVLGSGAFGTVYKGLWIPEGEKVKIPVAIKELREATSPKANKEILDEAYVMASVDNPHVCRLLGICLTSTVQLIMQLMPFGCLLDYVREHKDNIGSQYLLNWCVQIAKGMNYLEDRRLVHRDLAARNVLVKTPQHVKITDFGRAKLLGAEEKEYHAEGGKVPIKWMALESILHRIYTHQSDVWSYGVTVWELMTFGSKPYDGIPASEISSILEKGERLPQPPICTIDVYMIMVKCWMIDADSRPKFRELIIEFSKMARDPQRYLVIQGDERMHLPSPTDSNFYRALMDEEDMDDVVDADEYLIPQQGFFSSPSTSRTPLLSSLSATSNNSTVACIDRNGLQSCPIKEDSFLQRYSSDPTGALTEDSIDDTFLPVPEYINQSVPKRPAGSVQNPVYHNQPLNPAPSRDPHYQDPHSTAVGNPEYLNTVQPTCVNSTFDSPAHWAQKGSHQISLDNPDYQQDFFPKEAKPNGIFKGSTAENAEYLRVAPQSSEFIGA
T2 sequence (P00533 with tags, fused parts or gaps DEL746-750): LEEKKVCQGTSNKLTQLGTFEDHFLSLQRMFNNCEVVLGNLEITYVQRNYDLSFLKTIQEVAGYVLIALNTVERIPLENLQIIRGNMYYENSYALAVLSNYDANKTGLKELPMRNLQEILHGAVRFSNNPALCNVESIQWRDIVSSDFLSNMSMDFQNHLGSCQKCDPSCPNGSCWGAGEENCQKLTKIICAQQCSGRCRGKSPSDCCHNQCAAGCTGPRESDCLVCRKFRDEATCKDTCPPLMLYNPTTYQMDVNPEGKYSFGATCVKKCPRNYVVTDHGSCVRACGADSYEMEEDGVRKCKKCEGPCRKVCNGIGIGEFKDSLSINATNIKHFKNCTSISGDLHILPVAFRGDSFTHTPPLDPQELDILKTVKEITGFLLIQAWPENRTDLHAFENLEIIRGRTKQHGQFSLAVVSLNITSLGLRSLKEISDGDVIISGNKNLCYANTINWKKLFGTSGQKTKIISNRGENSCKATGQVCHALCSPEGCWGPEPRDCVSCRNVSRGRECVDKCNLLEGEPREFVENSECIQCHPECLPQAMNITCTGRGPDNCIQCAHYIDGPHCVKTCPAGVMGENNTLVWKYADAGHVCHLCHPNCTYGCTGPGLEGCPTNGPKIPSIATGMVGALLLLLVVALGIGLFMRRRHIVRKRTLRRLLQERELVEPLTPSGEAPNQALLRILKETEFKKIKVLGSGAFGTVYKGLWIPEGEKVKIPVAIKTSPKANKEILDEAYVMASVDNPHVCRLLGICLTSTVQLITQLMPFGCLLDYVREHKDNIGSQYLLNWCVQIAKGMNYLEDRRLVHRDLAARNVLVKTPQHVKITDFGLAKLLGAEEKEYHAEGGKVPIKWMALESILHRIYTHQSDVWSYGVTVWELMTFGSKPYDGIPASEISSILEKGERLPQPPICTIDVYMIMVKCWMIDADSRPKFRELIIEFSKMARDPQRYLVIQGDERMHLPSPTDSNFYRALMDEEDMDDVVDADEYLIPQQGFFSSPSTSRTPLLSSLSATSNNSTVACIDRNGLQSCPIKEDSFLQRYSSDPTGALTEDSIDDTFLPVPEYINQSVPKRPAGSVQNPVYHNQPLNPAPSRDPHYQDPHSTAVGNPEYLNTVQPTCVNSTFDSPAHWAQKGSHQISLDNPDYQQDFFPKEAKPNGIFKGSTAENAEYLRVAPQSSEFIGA

| IC50 [1] | IC50 (HCC827 cells) | IC50 [2] | IC50 (PC-9 cells) | IC50 [3] | IC50 (NCI-H1975 cells) | IC50 [4] | IC50 [5] | IC50 [6] | Compound |
| --- | --- | --- | --- | --- | --- | --- | --- | --- | --- |
| 0.22 nM | 10.6 nM | 2.94 nM | 43.1 nM | 53.7 nM | 74 nM | 15 nM | 7.41 nM | 203 nM | CCOc1nn(CCO)c2c1/C=C/c1n[nH]c3c(C)nc(cc13)-c1c(C)nn(C)c1OCCN(C)C2 [Ex. 75, 2-[(17E)-16-ethoxy-6,8,12,20-tetramethyl-2,8,10,11,12,13-hexahydro-14H-5,3-(azenometheno)tripyrazolo[3,4-f:3′,4′-j:4″,3″-n][1,4]oxazacyclopentadecin-14-yl]ethan-1-ol] |
| 0.12 nM | 0.85 nM | 4.4 nM | 1.54 nM | 24.7 nM | 207 nM | 2.35 nM | 15 nM | 66.3 nM | CCOc1nn([C@@H](C)CO)c2c1/C=C/c1n[nH]c3cnc(cc13)-c1c(CC)nn(C)c1O[C@@H](C)CN(C)C2 [Ex. 82, (2S)-2-[(10S,17E)-16-ethoxy-6-ethyl-8,10,12-trimethyl-2,8,10,11,12,13-hexahydro-14H-5,3-(azenometheno)tripyrazolo[3,4-f:3′,4′-j:4″,3″-n][1,4]oxazacyclopentadecin-14-yl]propan-1-ol] |
| 0.04 nM | 0.3 nM | 0.54 nM | 0.68 nM | 7.67 nM | 1.11 nM | 1.09 nM | 1.57 nM | 0.69 nM | CCOc1nn(C[C@H](C)O)c2c1/C=C/c1n[nH]c3cnc(cc13)-c1c(C)nn(C)c1O[C@@H](C)CN(C)C2 [Ex. 86, (2S)-1-[(10S,17E)-16-ethoxy-6,8,10,12-tetramethyl-2,8,10,11,12,13-hexahydro-14H-5,3-(azenometheno)tripyrazolo[3,4-f:3′,4′-j:4″,3″-n][1,4]oxazacyclopentadecin-14-yl]propan-2-ol] |
| 0.09 nM | 0.39 nM | 0.86 nM | 2.52 nM | 11 nM | 5.09 nM | 1.62 nM | 2.17 nM | 1.56 nM | CCOc1nn([C@H](C)CO)c2c1/C=C/c1n[nH]c3cnc(cc13)-c1c(C)nn(C)c1O[C@@H](C)CN(C)C2 [Ex. 88, (2R)-2-[(10S,17E)-16-ethoxy-6,8,10,12-tetramethyl-2,8,10,11,12,13-hexahydro-14H-5,3-(azenometheno)tripyrazolo[3,4-f:3′,4′-j:4″,3″-n][1,4]oxazacyclopentadecin-14-yl]propan-1-ol] |
| 3.84 nM | 11 nM | 20.8 nM | 35.3 nM | 34.3 nM | 125 nM | 16.1 nM | 48.1 nM | 43.3 nM | CCOc1nn([C@H](C)CO)c2c1/C=C/c1n[nH]c3cnc(cc13)-c1c(C)nn(C)c1O[C@H](C)CN(C)C2 [Ex. 89, (2R)-2-[(10R,17E)-16-ethoxy-6,8,10,12-tetramethyl-2,8,10,11,12,13-hexahydro-14H-5,3-(azenometheno)tripyrazolo[3,4-f:3′,4′-j:4″,3″-n][1,4]oxazacyclopentadecin-14-yl]propan-1-ol] |
| 0.06 nM | 0.58 nM | 0.48 nM | 2.37 nM | 8.44 nM | 0.97 nM | 1.26 nM | 1.1 nM | 0.61 nM | CCOc1nn(C[C@H](C)O)c2c1/C=C/c1n[nH]c3c(C)nc(cc13)-c1c(C)nn(C)c1O[C@@H](C)CN(C)C2 [Ex. 90, (2S)-1-[(10S,17E)-16-ethoxy-6,8,10,12,20-pentamethyl-2,8,10,11,12,13-hexahydro-14H-5,3-(azenometheno)tripyrazolo[3,4-f3′,4′-j:4″,3″-n][1,4]oxazacyclopentadecin-14-yl]propan-2-ol] |
| 9.29 nM | 16.8 nM | 17.2 nM | 63 nM | 34.8 nM | 57 nM | 69.5 nM | 21.3 nM | 45.7 nM | CCOc1nn([C@@H](C)CO)c2c1/C=C/c1n[nH]c3c(C)nc(cc13)-c1c(C)nn(C)c1O[C@@H](C)CNC2 [Ex. 91, (2S)-2-[(10S,17E)-16-ethoxy-6,8,10,20-tetramethyl-2,8,10,11,12,13-hexahydro-14H-5,3-(azenometheno)tripyrazolo[3,4-f:3′,4′-j:4″,3″-n][1,4]oxazacyclopentadecin-14-yl]propan-1-ol] |
| 0.74 nM | 5.37 nM | 4.12 nM | 43.4 nM | 33.4 nM | 68.5 nM | 12.6 nM | 14.1 nM | 29.7 nM | CCOc1nn([C@@H](C)CO)c2c1/C=C/c1n[nH]c3cnc(cc13)-c1c(C)nn(C)c1O[C@@H](C)CNC2 [Ex. 92, (2S)-2-[(10S,17E)-16-ethoxy-6,8,10-trimethyl-2,8,10,11,12,13-hexahydro-14H-5,3-(azenometheno)tripyrazolo[3,4-f:3′,4′-j:4″,3″-n][1,4]oxazacyclopentadecin-14-yl]propan-1-ol] |
| 3.16 nM | 25.3 nM | 12.2 nM | 52.8 nM | – | 57 nM | – | – | 204 nM | CCN(C)c1nn([C@@H](C)CO)c2c1/C=C/c1n[nH]c3c(C)nc(cc13)-c1c(C)nn(C)c1O[C@@H](C)CN(C)C2 [Ex. 102, (2S)-2-[(10S,17E)-16-[ethyl(methyl)amino]-6,8,10,12,20-pentamethyl-2,8,10,11,12,13-hexahydro-14H-5,3-(azenometheno)tripyrazolo[3,4-f:3′,4′-j:4″,3″-n][1,4]oxazacyclopentadecin-14-yl]propan-1-ol] |
| 6.89 nM | 13.9 nM | 36.2 nM | 59 nM | 146 nM | – | 39.8 nM | 50.5 nM | 63.9 nM | CCOc1nn(CCO)c2c1/C=C/c1n[nH]c3cnc(cc13)-c1c(cnn1C)OCCN(C)C2 [Ex. 104, 2-[(17E)-16-ethoxy-6,12-dimethyl-2,6,10,11,12,13-hexahydro-14H-5,3-(azenometheno)tripyrazolo[3,4-f:3′,4′-j:3″,4″-n][1,4]oxazacyclopentadecin-14-yl]ethan-1-ol] |
| 15.5 nM | 52.1 nM | 147 nM | 209 nM | 365 nM | – | 319 nM | 274 nM | 700 nM | CCN(C)c1nn([C@@H](C)CO)c2c1/C=C/c1n[nH]c3cnc(cc13)-c1c(C)nn(C)c1O[C@@H](C)CN(C)C2 [Ex. 105, (2S)-2-[(10S,17E)-16-[ethyl(methyl)amino]-6,8,10,12-tetramethyl-2,8,10,11,12,13-hexahydro-14H-5,3-(azenometheno)tripyrazolo[3,4-f:3′,4′-j:4″,3″-n][1,4]oxazacyclopentadecin-14-yl]propan-1-ol] |
| 9.04 nM | 1.47 nM | 31.9 nM | 3.35 nM | – | 6.13 nM | – | – | 3.05 nM | C=CC(=O)N1Cc2c(c(OCC)nn2[C@@H](C)CO)/C=C/c2n[nH]c3cnc(cc23)-c2c(C)nn(C)c2O[C@@H](C)C1 [Ex. 115, 1-[(10S,17E)-16-ethoxy-14-[(2S)-1-hydroxypropan-2-yl]-6,8,10-trimethyl-2,8,10,11,13,14-hexahydro-12H-5,3-(azenometheno)tripyrazolo[3,4-f:3′,4′-j:4″,3″-n][1,4]oxazacyclopentadecin-12-yl]prop-2-en-1-one] |
